Test results taken from patent US9795585B2, “Methods of using L-butylphthalide for the prevention and treatment of cerebral ischemia disease” (priority 2004, dated 2017).

Key:
[1] = tested on: cerebral edema induced by cerebral artery ligation in rats; experiment: Cerebral edema induced by ligation of right middle cerebral artery; assay type: in vivo, male Wistar rats; details: 40 and 80 mg/kg oral 15 minutes after ligation; sacrificed after 24 hours
Method: Experimental Animals: the same as Example 1. Experimental Equipments: Oxygen analyzer. Experimental Methods: Cerebral edema was induced by the ligation of right middle cerebral artery of rats. After 15 minutes, dl-, d-, and l-NBP (40 and 80 mg/kg) were orally administered. The rats were sacrificed after 24 hours. The forebrain was removed, and the cerebral hemispheres on the left and right side were weighed. Dry weight was obtained by baking for 24 hours under 100° C. The weight of water in the brain tissue was thus calculated by subtracting of dry weight from wet weight. Then, the tissues was nitrified for 4 hours, and pH was adjusted by using HCl. Next, the ion selective electrode was connected onto the oxygen analyzer, and the concentrations of Na^+ and K^+ in the brain tissue were measured.

[2] = tested on: ischemic brain of decapitated mice; experiment: Ischemic cerebral metabolism of energy induced by decapitation of mice; assay type: in vivo, KunMing mice; details: NBP 50 and 100 mg/kg oral, sodium Phenobarbital 225 mg/kg ip.; decapitated 30 minutes after administration; 15 seconds ischemia; vs control group
Method: Experimental Animals: KunMing mice.
Test drug: injectable L-butylphthalide was formulated into an emulsion with Tween-80.
Experimental Methods: KunMing mice of 10 to 22 g were divided into 8 groups with 10 mice per group. dl-, d-, and l-NBP (50 and 100 mg/kg/d), sodium Phenobarbital (225 mg/kg ip.) and the vehicle were orally administered. Thirty minutes after administration, the mice were decapitated.
The time between the decapitation and homogenation, which was 15 seconds, was regarded as cerebral ischemic time. Centrifugation and isolation were conducted by the method of Folbergrova, and the contents of lactic acid, ATP and PCr were determined by enzymological method.

normal rats = assay type: in vivo, Male wistar rats; details: 15 and 30 mg/kg oral; 30 minutes after administration
Method: Experimental Animals: Male wistar rats.
Experimental Equipments: SXP operating microscope, 62TZ-V model high frequency electrotome, solid positioner, Diamond Electro-Tech chemical microsensor 1231, two channel physiological parameter recorder.
Experimental Methods: • (1) dl-, d-, and l-NBP (15 and 30 mg/kg) and the vehicle were orally administered to the normal rats, and the changes of cerebral blood flow at different time after the administration were measured. • (2) ligation of cerebral artery was conducted on rats according to the method of Tamura. Oral administration was performed at 10 min after the operation. The rats were divided into 9 groups, which were normal group, pseudo-operation group, vehicle control group, and groups of dl-, d-, and l-NBP (15 and 30 mg/kg).

[3] = tested on: focal cerebral ischemia in rats; experiment: Memory disorder induced by focal cerebral ischemia (shuttle box, artery ligation by method of Tamura); assay type: in vivo, male Wistar rats; details: 15 and 30 mg/kg oral 15 min after operation; observed after 24 hours; vs vehicle control
Method: Experimental Animal: The same as Example 1. Experimental Equipment: Shuttle box. Experimental Methods: • 1. Rats were trained to acquire learning and memory; • 2. Artery ligation: Artery ligation was conducted on rats according to the method of Tamura. After 24 hours, the experiment of learning as in step (1) was repeatedly conducted on rats. • 3. Grouping and administration: the rats were divided into 9 groups, which were normal group, pseudo-operation group, ischemia control group, and groups of dl-, d-, and l-NBP (15 and 30 mg/kg). The rats were orally administered at 15 min after the operation, and the changes of latency of active and passive avoidance response were observed after 24 hours.

[4] = tested on: cerebral ischemia-reperfusion rats; experiment: Behavioral disorder and cerebral infarct area in cerebral ischemia-reperfusion rats (MCAO by nylon suture, 1.5 h); assay type: in vivo, male Wistar rats
Text: Experimental Animal: The same as Example 1
Experimental Equipments: The same as Example 7
Experimental Methods: The rats were anesthetized, and fixed in lateral decubitus position. Under the operating microscope, a midline neck skin incision was made to expose the left common cartotid artery. The surrounding nerves and fascia from the bifurcation of common carotid artery to the vascular of basis cranii were removed.
The internal carotid artery was then separated and carefully separated free from vagus nerve. Pterygopalatine artery was ligated at the root of the internal carotid artery. A 6# needle for injection containing 3# nylon suture (diameter of 0.285 mm) was punctured into the free end of the external carotid artery, advancing the nylon suture into the blood vascular. The needle was carefully withdrawn, and the nylon suture was guided into the internal carotid artery from the distal end of the external carotid artery up till to Willis ring, so as to effectively block the middle cerebral artery.
Depending on the body weight, the distance from the inserted nylon suture to the bifurcation of common carotid artery was 18 to 20 mm. The free end of the external carotid artery and the nylon suture therein were ligated together, in order to prevent bleeding. The muscle and the skin were then sutured layer by layer, and penicillin was dropped to prevent infection. To effectively block the middle cerebral artery, the tip of the nylon suture was made round by burning with the flame, and coated with 0.1% of poly-L-lysine. The nylon suture was baked in a 60° C. oven for 1 hour.
Due to the ability of poly-L-lysine to binding the cell and the protein to the plastic surface, and thus allow the negative charged nylon suture changing into a positive charged one and attract the anion ionic part of the endothelial cell, the nylon suture was closely bond to the endothelial surface, so as to prevent the leakage of the blood from the surrounding of the suture. Only the internal carotoid artery was separated from the animals of pseudo-operation group.
At 1.5 hours after the initiation of MCAO, the nylon suture within the lumen of the internal carotoid artery was carefully withdrawn, and the internal carotoid artery was allowed to reperfusion. The rats were then placed back into the cage.

[5] = tested on: permanent cerebral ischemic rats; experiment: Behavioral disorder and cerebral infarct area in permanent cerebral ischemic rats (FeCl3 on middle cerebral artery); assay type: in vivo, Wistar rats
Method: Experimental Animal: The same as Example 1. Experimental Equipments: COOLPIX955 digital camera, 722 grating spectroscope, XHF-1 high-speed disperser, YKH-II liquid high-speed mixer, WZ-50C2 micro infusion pump. Experimental Methods: Wistar rats were anesthetized by intraperitoneally injecting 12% chloral hydrate in 350 mg/kg, and fixed in lateral decubitus position. The skin at the midpoint on the line from exterior auditory canal to canthus was cut. The muscle was separated layer by layer to expose zygomatic arch and the squamous part of temporal bone. The zygomatic arch was scissored and then placed under an operating microscope. A window of 2 mm diameter was drilled by using a dentistry drill at a position of 2 mm under the anterior joint between zygomatic arch and the squamous part of temporal bone, so as to expose the middle cerebral artery. A little piece of filter paper was applied onto the middle artery, and 10 μl of 50% FeCl3 aqueous solution was dripped onto the filter paper. The filter paper was removed after 30 min, and washed with physiological brine. Two to three drops of penicillin (1.6×10^5 U/mL) were added so as to prevent infection of the cut. Then the cut was sutured layer by layer.

[6] = tested on: cerebral injury-induced cerebral ischemia in rats; experiment: Neural symptoms induced by cerebral injury in rats; assay type: in vivo, male Wistar rats; details: 50 mg/kg oral 5 minutes after cerebral injury; scored after 24 hours; vs vehicle control
Method: Experimental Animals: male Wistar rats
Experimental Methods: Cerebral injury in rats was caused by allowing a cone-shaped metal object weighing 220 g to freely fall from a position of 30 cm height and to strike the skull cap behind the left coronal suture. dl-, d-, and l-NBP (50 mg/kg) and the vehicle (control group) were orally administered after 5 minutes, and the behavioral changes were scored after 24 hours.

[7] = tested on: cerebral apoplexy in spontaneous hypertension rats; experiment: Cerebral apoplexy in salt-loaded spontaneous hypertensive rats; assay type: in vivo; details: 25 and 50 mg/kg/d oral
Method: Experimental Animals: spontaneous hypertensive rats of 6 weeks old. Experimental Methods: Spontaneous hypertensive rats of 6 weeks old were divided into 8 groups with 10 rats per group. 0.8 to 0.9 g per day of common salt was administered starting from week 6. […] The scores of neurological deficit and the time of death were recorded.

[8] = 24 hours after intravenous injection

Q: Which “content of K+ in the brain” value [1] does the source give for `CCCC[C@H]1OC(=O)c2ccccc21` [d-NBP, dextro-butylphthalide] here?
A: The value was “no significant effect”.

Q: What about the “content of Na+ in the brain” value [1] of the same compound?
A: The value was “no significant effect”.

Q: What about the “content of water in the brain” value [1] of the same compound?
A: Its value is “no significant effect”.

Q: And the “content of ATP in the brain” value [2]?
A: Its value is “no such significant effect”.

Q: And the “content of PCr in the brain” value [2]?
A: The value was “no such significant effect”.

Q: What about the “content of lactic acid in the brain” value [2] of the same compound?
A: The value was “no such significant effect”.

Q: And the “cerebral blood flow rate in normal rats” value (normal rats)?
A: Its value is “no such effects”.

Q: And the “times of active avoidance” value [3]?
A: Its value is “not observed”.

Q: What about the “neurological deficit scores (effect in words)” value [4, 8] of the same compound?
A: Its value is “improvement”.

Q: What about the “potency on neurological deficit scores compared among l, dl and d-NBP” value [4, 8] of the same compound?
A: The value was “no significant difference”.

Q: And the “cerebral infarct area (effect in words)” value ([4]; intravenous administration, effect increases with dose)?
A: Its value is “significantly reduce”.

Q: And the “cerebral infarct area (effect in words)” value ([5]; 2.5 mg/kg, tendency of reducing)?
A: The value was “not significant”.

Q: And the “reduction of cerebral infarct area” value ([5]; first of three doses, vs model control group)?
A: Its value is 27.2%.

Q: And the “decrease of neurological deficit scores” value ([5]; high dose, i.v., 24 hours after administration)?
A: Its value is 28.1%.

Q: And the “ED30 (neurological deficit scores)” value ([5]; i.v., 24 hours after administration)?
A: The value was 12.4 mg/kg.

Q: What about the “neurological deficit scores (effect in words)” value ([5]; intravenous injection, vs model control group) of the same compound?
A: The value was “improvement”.

Q: And the “decrease of neurological deficit scores” value ([5]; low dose, i.v., 24 hours after administration)?
A: The value was 17.2%.

Q: What about the “decrease of neurological deficit scores” value ([5]; moderate dose, i.v., 24 hours after administration) of the same compound?
A: Its value is 21.9%.

Q: What about the “reduction of cerebral infarct area” value ([5]; second of three doses, vs model control group) of the same compound?
A: The value was 32.7%.

Q: And the “reduction of cerebral infarct area” value ([5]; third of three doses, vs model control group)?
A: Its value is 39.9%.

Q: What about the “ED40 (cerebral infarct area)” value ([5]; vs model control group) of the same compound?
A: Its value is 10.3 mg/kg.

Q: And the “neural symptoms (behavioral changes scored)” value [6]?
A: The value was “no significant effect”.

Q: What about the “preventive and therapeutic effect on cerebral apoplexy (overall)” value [7] of the same compound?
A: The value was “not significant”.

Q: For `CCC1(c2ccccc2)C(=O)NC(=O)NC1=O` [sodium Phenobarbital], which “content of ATP in the brain” value [2] is on record?
A: The value was “increased”.

Q: What about the “content of PCr in the brain” value [2] of the same compound?
A: Its value is “increased”.

Q: And the “content of lactic acid in the brain” value [2]?
A: The value was “significantly decreased”.
